Source: US10899732B2, “Substituted benzamides useful as sodium channel blockers” (GENENTECH, INC., priority 2015, dated 2021)
Structures can show the parent of a compound that is named as a salt.

Columns and labels:
hNav1.7 = target: T1, hNav1.7 (Homo sapiens, UniProt Q15858); assay: Tritiated sulfonamide competitive binding to membranes from cells expressing hNav1.7 and the β1 subunit (LBA); conditions: competition with 100 pM [3H]compound, 18 h, room temperature; read-out: Nav1.7 (LBA)
T1 construct: expressed in transfected cells
Protocol: Tritiated Sulfonamide Binding to Membranes Isolated from Cells that Heterologously Express hNav1.7 and the β1 Subunit
Preparation of membranes containing recombinantly expressed sodium channels: Frozen recombinant cell pellets were thawed on ice and diluted to 4 times the cell pellet weight with ice cold 50 mM Tris HCl, pH 7.4 buffer. The cell suspensions were homogenized on ice using a motorized glass dounce homogenizer. Homogenates were further diluted 8.4 times with ice cold 50 mM Tris HCl, pH 7.4 buffer and then centrifuged at 200×g at 4° C. for 15 min. The supernatants were collected and centrifuged at 10000×g at 4° C. for 50 min. The pellets were then re-suspended in 100 mM NaCl, 20 mM Tris HCl, pH 7.4 buffer containing 1% v/v protease inhibitors (Calbiochem) and re-homogenized on ice. The homogenized membranes were then processed through a syringe equipped with a 26 gauge needle. Protein concentrations were determined by Bradford Assay and the membranes were stored at −80° C.
Saturation experiments. A competitive NaV1.7 inhibitor having a methyl group was tritiated. Three tritiums were incorporated in place of methyl hydrogens to generate [^3H]compound. Binding of this radioligand was preformed in 5 mL borosilicate glass test tubes at room temperature. Binding was initiated by adding membranes to increasing concentrations of [^3H]compound in 100 mM NaCl, 20 mM Tris HCl, pH 7.4 buffer containing 0.01% w/v bovine serum albumin (BSA) for 18 h. Non-specific binding was determined in the presence of 1 μM unlabelled compound. After 18 h, the reactants were filtered through GF/C glass fiber filters presoaked in 0.5% w/v polyethylene imine. Filters were washed with 15 mL ice cold 100 mM NaCl, 20 mM Tris HCl, pH 7.4 buffer containing 0.25% BSA to separate bound from free ligand. [^3H]compound bound to filters was quantified by liquid scintillation counting.
Binding reactions were performed in 96-well polypropylene plates at room temperature for 18 h. In 360 μL, membranes were incubated with 100 pM [^3H]compound and increasing concentrations of Test Compound. Non-specific binding was defined in the presence of 1 μM unlabelled compound. Reactions were transferred and filtered through 96-well glass fiber/C filter plates presoaked with 0.5% polyethylene imine. The filtered reactions were washed 5 times with 200 μL ice cold buffer containing 0.25% BSA. Bound radioactivity was determined by liquid scintillation counting.
Data Analysis: For saturation experiments, non-specific binding was subtracted from total binding to provide specific binding and these values were recalculated in terms of pmol ligand bound per mg protein. Saturation curves were constructed and dissociation constants were calculated using the single site ligand binding model: Beq=(Bmax*X)/(X+Kd), where Beq is the amount of ligand bound at equilibrium, Bmax is the maximum receptor density, Kd is the dissociation constant for the ligand, and X is the free ligand concentration. For competition studies percent inhibition was determined and IC50 values were calculated using a 4 parameter logistic model (% inhibition=(A+((B−A)/(1+((x/C)^D)))) using XLfit, where A and B are the maximal and minimum inhibition respectively, C is the IC50 concentration and D is the (Hill) slope.

NaV1.7 = target: T2, NaV1.7 (Homo sapiens, UniProt Q15858); assay: Patch voltage clamp electrophysiology assay (EP), NaV1.7 in HEK-293 cells; type: cell-based; conditions: HEK-293, β1 coexpressed, held at -60 mV (inactivated state)
T2 construct: expression vector containing the full-length cDNA coding for the desired human sodium channel α-subunit; expressed in transfected cells; host or cells: HEK-293
Text: (§1) Electrophysiological Assay (EP) (In Vitro Assay)
(§2) Patch voltage clamp electrophysiology allows for the direct measurement and quantification of block of voltage-gated sodium channels (NaV's), and allows the determination of the time- and voltage-dependence of block which has been interpreted as differential binding to the resting, open, and inactivated states of the sodium channel (Hille, B., Journal of General Physiology (1977), 69: 497-515).
(§3) The following patch voltage clamp electrophysiology studies were performed on representative compounds of the invention using human embryonic kidney cells (HEK), permanently transfected with an expression vector containing the full-length cDNA coding for the desired human sodium channel α-subunit, grown in culture media containing 10% FBS, 1% PSG, and 0.5 mg/mL G418 at 37° C. with 5% CO2. […] NaV1.7 and NaV1.5 cDNAs (NM_002977 and AC137587; SCN5A, respectively) were stably expressed in HEK-293 cells. The β1 subunit was coexpressed in both the NaV1.7 and NaV1.5 cell lines.
(§4) Sodium currents were measured using the patch clamp technique in the whole-cell configuration using either a PatchXpress automated voltage clamp or manually using an Axopatch 200B (Axon Instruments) or Model 2400 (A-M systems) amplifier. The manual voltage clamp protocol was as follows: Borosilicate glass micropipettes were fire-polished to a tip diameter yielding a resistance of 2-4 Mohms in the working solutions. The pipette was filled with a solution comprised of: 5 mM NaCl, 10 mM CsCl, 120 mM CsF, 0.1 mM CaCl2, 2 mM MgCl2, 10 mM HEPES, 10 mM EGTA; and adjusted to pH 7.2 with CsOH. The external solution had the following composition: 140 mM NaCl, 5 mM KCl, 2 mM CaCl2, 1 mM MgCl2, 10 mM HEPES; and adjusted to pH 7.4 with NaOH. In some studies, the external sodium was reduced by equimolar replacement with choline. Osmolarity in the CsF internal and NaCl external solutions was adjusted to 300 mOsm/kg and 310 mOsm/kg with glucose, respectively. All recordings were performed at ambient temperature in a bath chamber with a volume of 150 μL. Control sodium currents were measured in 0.5% DMSO. Controls and representative compounds of the invention were applied to the recording chamber through a 4-pinch or 8-pinch valve bath perfusion system manufactured by ALA Scientific Instruments.
(§5) Currents were recorded at 40 kHz sampling frequency, filtered at […], and stored using a Digidata-1322A analogue/digital interface with the pClamp software (Axon Instruments). Series resistance compensation was applied (60-80%). […] All statistics in this study are given as mean±SD.
(§6) The membrane potential was maintained at a voltage where inactivation of the channel is complete (which was −60 mV for both NaV1.7 and NaV1.5). The voltage is then stepped back to a very negative (Vhold=[…]) voltage for 20 ms and then a test pulse is applied to quantify the compound block. The 20 ms brief repolarization was long enough for compound-free channels to completely recover from fast inactivation, but the compound-bound channels recovered more slowly such that negligible recovery could occur during this interval. The percent decrease in sodium current following wash-on of compound was taken as the percent block of sodium channels.

NaV1.5 = target: T3, NaV1.5 (Homo sapiens, UniProt Q14524); assay: Patch voltage clamp electrophysiology assay (EP), NaV1.5 in HEK-293 cells; type: cell-based; conditions: HEK-293, β1 coexpressed, held at -60 mV (inactivated state)
T3 construct: expression vector containing the full-length cDNA coding for the desired human sodium channel α-subunit; expressed in transfected cells; host or cells: HEK-293
Text: as §1, §2, §3, §4, §5, §6

T3 sequence (Q14524 whole entry): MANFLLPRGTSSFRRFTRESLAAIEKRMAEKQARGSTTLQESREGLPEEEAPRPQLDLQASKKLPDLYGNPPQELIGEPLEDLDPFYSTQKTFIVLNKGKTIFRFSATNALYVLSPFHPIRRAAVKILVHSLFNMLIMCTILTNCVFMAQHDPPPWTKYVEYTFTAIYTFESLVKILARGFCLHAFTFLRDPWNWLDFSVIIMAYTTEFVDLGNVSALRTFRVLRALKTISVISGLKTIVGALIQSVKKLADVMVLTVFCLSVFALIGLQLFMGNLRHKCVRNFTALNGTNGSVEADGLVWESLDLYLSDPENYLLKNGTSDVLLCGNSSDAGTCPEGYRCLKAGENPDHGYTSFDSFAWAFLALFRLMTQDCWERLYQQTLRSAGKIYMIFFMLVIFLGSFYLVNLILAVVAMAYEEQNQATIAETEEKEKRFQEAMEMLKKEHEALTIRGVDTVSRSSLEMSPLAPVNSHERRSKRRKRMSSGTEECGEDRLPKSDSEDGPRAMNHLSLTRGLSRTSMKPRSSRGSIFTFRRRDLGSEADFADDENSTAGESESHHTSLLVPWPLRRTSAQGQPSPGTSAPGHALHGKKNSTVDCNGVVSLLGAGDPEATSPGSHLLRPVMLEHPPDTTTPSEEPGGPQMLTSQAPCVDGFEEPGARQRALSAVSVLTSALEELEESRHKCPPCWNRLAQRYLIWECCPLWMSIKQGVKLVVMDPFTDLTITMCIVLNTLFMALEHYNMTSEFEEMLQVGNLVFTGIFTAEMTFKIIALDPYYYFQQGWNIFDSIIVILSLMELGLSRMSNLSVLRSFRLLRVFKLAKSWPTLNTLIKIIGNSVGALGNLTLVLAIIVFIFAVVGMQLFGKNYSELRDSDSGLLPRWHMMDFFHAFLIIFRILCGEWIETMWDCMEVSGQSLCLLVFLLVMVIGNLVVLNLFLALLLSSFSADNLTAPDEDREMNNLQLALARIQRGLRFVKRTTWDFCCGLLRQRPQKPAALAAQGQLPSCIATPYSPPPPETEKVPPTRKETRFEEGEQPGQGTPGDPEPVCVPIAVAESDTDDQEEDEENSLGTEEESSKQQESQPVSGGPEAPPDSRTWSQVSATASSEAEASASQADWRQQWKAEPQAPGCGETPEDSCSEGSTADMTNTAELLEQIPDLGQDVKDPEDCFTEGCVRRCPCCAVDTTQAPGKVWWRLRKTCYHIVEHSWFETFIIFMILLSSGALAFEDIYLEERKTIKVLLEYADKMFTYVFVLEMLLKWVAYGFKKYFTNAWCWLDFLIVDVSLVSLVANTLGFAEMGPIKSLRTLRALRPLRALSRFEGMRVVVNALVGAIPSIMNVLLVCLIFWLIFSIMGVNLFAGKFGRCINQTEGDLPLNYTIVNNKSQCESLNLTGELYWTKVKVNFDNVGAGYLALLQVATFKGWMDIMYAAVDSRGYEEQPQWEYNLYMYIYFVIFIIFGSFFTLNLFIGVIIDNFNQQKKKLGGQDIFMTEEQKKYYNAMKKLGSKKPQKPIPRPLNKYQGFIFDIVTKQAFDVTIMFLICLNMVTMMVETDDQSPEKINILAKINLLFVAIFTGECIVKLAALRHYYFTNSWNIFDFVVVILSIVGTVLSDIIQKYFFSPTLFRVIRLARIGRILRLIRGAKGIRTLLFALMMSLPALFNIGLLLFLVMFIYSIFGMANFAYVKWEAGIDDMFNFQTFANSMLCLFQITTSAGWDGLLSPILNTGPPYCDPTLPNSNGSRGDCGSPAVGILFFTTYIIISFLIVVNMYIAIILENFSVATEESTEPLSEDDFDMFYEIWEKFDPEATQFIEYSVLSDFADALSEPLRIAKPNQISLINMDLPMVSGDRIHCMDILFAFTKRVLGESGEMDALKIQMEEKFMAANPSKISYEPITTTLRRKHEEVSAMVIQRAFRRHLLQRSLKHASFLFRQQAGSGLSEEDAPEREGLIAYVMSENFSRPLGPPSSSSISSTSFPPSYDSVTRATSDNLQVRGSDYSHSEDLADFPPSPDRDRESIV
T2 sequence (Q15858 1-1977 isoform Q15858-3): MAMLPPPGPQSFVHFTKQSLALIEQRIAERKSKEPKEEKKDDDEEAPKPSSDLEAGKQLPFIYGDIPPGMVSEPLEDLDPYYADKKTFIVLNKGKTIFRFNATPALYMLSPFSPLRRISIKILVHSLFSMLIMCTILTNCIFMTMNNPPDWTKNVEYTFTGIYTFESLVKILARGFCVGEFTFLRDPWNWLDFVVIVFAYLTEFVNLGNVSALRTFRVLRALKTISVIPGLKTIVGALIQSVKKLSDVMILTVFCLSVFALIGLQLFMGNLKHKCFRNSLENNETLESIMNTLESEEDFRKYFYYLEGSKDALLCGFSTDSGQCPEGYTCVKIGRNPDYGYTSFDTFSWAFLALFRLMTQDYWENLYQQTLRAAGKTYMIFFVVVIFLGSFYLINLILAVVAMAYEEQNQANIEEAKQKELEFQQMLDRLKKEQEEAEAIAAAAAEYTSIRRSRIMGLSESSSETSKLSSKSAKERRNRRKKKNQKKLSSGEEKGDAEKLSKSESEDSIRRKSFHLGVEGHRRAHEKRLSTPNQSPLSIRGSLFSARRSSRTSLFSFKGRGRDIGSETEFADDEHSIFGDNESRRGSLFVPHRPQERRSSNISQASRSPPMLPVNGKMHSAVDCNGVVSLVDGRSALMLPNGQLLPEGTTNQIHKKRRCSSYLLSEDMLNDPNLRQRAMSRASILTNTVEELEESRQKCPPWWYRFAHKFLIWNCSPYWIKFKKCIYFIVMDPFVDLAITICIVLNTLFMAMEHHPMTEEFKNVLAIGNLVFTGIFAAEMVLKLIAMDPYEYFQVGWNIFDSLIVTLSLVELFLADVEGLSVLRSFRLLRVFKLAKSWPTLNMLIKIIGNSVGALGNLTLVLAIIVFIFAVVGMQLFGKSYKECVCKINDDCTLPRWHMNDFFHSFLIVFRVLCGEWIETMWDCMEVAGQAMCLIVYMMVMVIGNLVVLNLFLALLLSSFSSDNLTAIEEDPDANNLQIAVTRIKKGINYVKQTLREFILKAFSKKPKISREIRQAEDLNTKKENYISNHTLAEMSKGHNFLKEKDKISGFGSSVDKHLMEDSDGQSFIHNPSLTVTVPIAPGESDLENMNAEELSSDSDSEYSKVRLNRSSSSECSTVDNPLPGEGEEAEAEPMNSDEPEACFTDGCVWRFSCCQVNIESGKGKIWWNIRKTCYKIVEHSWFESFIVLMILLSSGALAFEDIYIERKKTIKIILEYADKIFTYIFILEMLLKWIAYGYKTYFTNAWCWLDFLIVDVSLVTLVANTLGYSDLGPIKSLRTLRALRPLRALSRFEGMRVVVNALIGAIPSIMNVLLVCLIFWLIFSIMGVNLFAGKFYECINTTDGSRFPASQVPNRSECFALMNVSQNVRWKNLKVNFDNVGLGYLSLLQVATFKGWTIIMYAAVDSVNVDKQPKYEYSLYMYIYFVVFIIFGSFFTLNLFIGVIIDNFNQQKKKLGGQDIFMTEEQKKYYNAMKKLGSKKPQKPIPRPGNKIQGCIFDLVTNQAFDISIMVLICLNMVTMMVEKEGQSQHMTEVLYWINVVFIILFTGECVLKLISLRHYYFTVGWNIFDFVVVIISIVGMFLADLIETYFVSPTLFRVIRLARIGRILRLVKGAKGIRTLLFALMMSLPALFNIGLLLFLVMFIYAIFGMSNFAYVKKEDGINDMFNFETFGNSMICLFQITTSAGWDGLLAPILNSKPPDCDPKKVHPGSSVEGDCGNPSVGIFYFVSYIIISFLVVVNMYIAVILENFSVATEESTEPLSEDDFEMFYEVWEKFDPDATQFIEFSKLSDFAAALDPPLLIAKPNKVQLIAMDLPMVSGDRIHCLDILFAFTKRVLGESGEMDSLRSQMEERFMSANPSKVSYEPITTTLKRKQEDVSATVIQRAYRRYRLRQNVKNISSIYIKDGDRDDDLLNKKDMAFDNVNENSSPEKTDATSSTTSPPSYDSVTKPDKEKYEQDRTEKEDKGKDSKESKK
T2 sequence (Q07699 19-218 partner): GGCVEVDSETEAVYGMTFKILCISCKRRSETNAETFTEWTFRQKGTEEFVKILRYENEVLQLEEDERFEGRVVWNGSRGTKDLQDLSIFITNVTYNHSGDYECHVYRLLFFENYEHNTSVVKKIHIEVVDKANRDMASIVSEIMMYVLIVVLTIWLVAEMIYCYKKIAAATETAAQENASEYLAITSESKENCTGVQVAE
T1 sequence (Q15858 1-1977 isoform Q15858-3): as the sequence (Q15858 1-1977 isoform Q15858-3) above
T1 sequence (Q07699 19-218 partner): as the sequence (Q07699 19-218 partner) above

| Compound | IC50 (hNav1.7) | IC50 (NaV1.7) | IC50 (NaV1.5; human, pH 7.4) | IC50 (NaV1.5) |
| --- | --- | --- | --- | --- |
| Cc1nn(C2CCCCC2)c2cc(F)c(C(=O)NS(C)(=O)=O)cc12 [Example 38, 1-cyclohexyl-6-fluoro-3-methyl-N-(methylsulfonyl)-1H-indazole-5-carboxamide] | 1000 nM | 11000 nM | ≥ 30000 nM | – |
| Cc1nn(C2CCN(Cc3cc(Cl)ccc3C(F)(F)F)CC2)c2cc(F)c(C(=O)NS(=O)(=O)C3CC3)cc12 [Example 8, 1-(1-(5-chloro-2-(trifluoromethyl)benzyl)piperidin-4-yl)-N-(cyclopropylsulfonyl)-6-fluoro-3-methyl-1H-indazole-5-carboxamide] | 5 nM | 26 nM | – | 610 nM |
| Cc1nn(C2CCCCC2)c2cc(F)c(C(=O)NS(=O)(=O)N3CCC3)cc12 [Example 37, N-(azetidin-1-ylsulfonyl)-1-cyclohexyl-6-fluoro-3-methyl-1H-indazole-5-carboxamide] | 490 nM | 3600 nM | ≥ 30000 nM | – |
| Cc1nn(CC23CC4CC(CC(C4)C2)C3)c2cc(F)c(C(=O)N[S@TB2](C)(=O)=O)cc12 [Example 40, 1-(((1s,3s)-adamantan-1-yl)methyl)-6-fluoro-3-methyl-N-(methylsulfonyl)-1H-indazole-5-carboxamide] | 410 nM | 1200 nM | ≥ 30000 nM | – |
| Cc1nn(C2CCN(Cc3cc(Cl)cc(OC(F)(F)F)c3)CC2)c2cc(F)c(C(=O)NS(=O)(=O)C3CC3)cc12 [Example 5, 1-(1-(3-chloro-5-(trifluoromethoxy)benzyl)piperidin-4-yl)-N-(cyclopropylsulfonyl)-6-fluoro-3-methyl-1H-indazole-5-carboxamide] | 6 nM | 51 nM | – | 2400 nM |
| Cc1nn(C2CCN(Cc3cc(OC(F)(F)F)ccc3Br)CC2)c2cc(F)c(C(=O)NS(=O)(=O)C3CC3)cc12 [Example 7, 1-(1-(2-bromo-5-(trifluoromethoxy)benzyl)piperidin-4-yl)-N-(cyclopropylsulfonyl)-6-fluoro-3-methyl-1H-indazole-5-carboxamide 2,2,2-trifluoroacetate] | 5 nM | 9 nM | – | 630 nM |
| Cc1nn(C2CCN([C@@H](C)c3cc(Cl)cc(Cl)c3)CC2)c2cc(F)c(C(=O)NS(=O)(=O)C3CC3)cc12 [Example 10, (S)-N-(cyclopropylsulfonyl)-1-(1-(1-(3,5-dichlorophenyl)ethyl)piperidin-4-yl)-6-fluoro-3-methyl-1H-indazole-5-carboxamide] | 10 nM | 33 nM | – | 14000 nM |
| Cc1nn(CC23CC4CC(CC(C4)C2)C3)c2cc(F)c(C(=O)N[S@TB3](=O)(=O)N3CCC3)cc12 [Example 41, 1-(((1s,3s)-adamantan-1-yl)methyl)-N-(azetidin-1-ylsulfonyl)-6-fluoro-3-methyl-1H-indazole-5-carboxamide] | 300 nM | 3400 nM | ≥ 30000 nM | – |
| Cc1nn(C23CC4CC(CC(C4)C2)C3)c2cc(F)c(C(=O)NS(=O)(=O)N3CCC3)cc12 [Example 35, 1-((3s,5s,7s)-adamantan-1-yl)-N-(azetidin-1-ylsulfonyl)-6-fluoro-3-methyl-1H-indazole-5-carboxamide] | 180 nM | 1000 nM | ≥ 30000 nM | – |

More lines, main results first:

| IC50 (hNav1.7) | IC50 (NaV1.7) | Compound | IC50 (NaV1.5; human, pH 7.4) | IC50 (NaV1.5) |
| --- | --- | --- | --- | --- |
| 17 nM | 100 nM | Cc1nn([C@@H]2CCN([C@H](C)c3cc(Cl)cc(Cl)c3)C2)c2cc(F)c(C(=O)NS(C)(=O)=O)cc12 [Example 16, 1-((R)-1-((R)-1-(3,5-dichlorophenyl)ethyl)pyrrolidin-3-yl)-6-fluoro-3-methyl-N-(methylsulfonyl)-1H-indazole-5-carboxamide, trifluoroacetic acid salt] | – | 13000 nM |
| 15 nM | 250 nM | Cc1nn(C2CCN(c3ccc(Cl)c(C(F)(F)F)n3)CC2)c2cc(F)c(C(=O)NS(=O)(=O)C3CC3)cc12 [Example 13, 1-(1-(5-chloro-6-(trifluoromethyl)pyridin-2-yl)piperidin-4-yl)-N-(cyclopropylsulfonyl)-6-fluoro-3-methyl-1H-indazole-5-carboxamide 2,2,2-trifluoroacetate] | – | 2400 nM |
| 20 nM | 79 nM | Cc1nn(C2CCC(C(C)C)CC2)c2cc(F)c(C(=O)NS(C)(=O)=O)cc12 (stereo not drawn) [Example 33, 6-fluoro-1-(4-isopropylcyclohexyl)-3-methyl-N-(methylsulfonyl)-1H-indazole-5-carboxamide] | – | 20000 nM |
| 10 nM | 62 nM | Cc1nn([C@@H]2CCN(Cc3ccc(Cl)cc3C(F)(F)F)C2)c2cc(F)c(C(=O)NS(=O)(=O)C3CC3)cc12 [Example 20, (R)-1-(1-(4-chloro-2-(trifluoromethyl)benzyl)pyrrolidin-3-yl)-N-(cyclopropylsulfonyl)-6-fluoro-3-methyl-1H-indazole-5-carboxamide, trifluoroacetic acid salt] | – | 580 nM |
| 32 nM | 400 nM | Cc1nn(C2CN(Cc3cc(Cl)cc(OC(F)(F)F)c3)C2)c2cc(F)c(C(=O)NS(C)(=O)=O)cc12 [Example 14, 1-(1-(3-chloro-5-(trifluoromethoxy)benzyl)azetidin-3-yl)-6-fluoro-3-methyl-N-(methylsulfonyl)-1H-indazole-5-carboxamide] | – | 13000 nM |
| 40 nM | 150 nM | Cc1nn([C@@H]2CCN([C@@H](C)c3cc(Cl)cc(Cl)c3)C2)c2cc(F)c(C(=O)NS(C)(=O)=O)cc12 [Example 18, 1-((R)-1-((S)-1-(3,5-dichlorophenyl)ethyl)pyrrolidin-3-yl)-6-fluoro-3-methyl-N-(methylsulfonyl)-1H-indazole-5-carboxamide, trifluoroacetic acid salt] | – | 17000 nM |
